Reference: patent US6951953B2, “Tumor selective and biodegradable polyphosphazene-platinum(II) conjugate antitumor agent, and preparation method thereof” (EWHA Womans University, priority 2003, dated 2005)
pIC50: −log10 of the molar value. Like-named read-outs stand apart in the source and are kept apart here.

What was measured:
[1] = tested on: gastric tumor cell line (YCC-3); assay: In vivo xenograft test against a gastric tumor cell line (YCC-3); details: YCC-3 xenograft in nu/nu mice; for The tumor tissue size after injection of an antitumor agent: intraperitoneal; for tumor tissue growth rate / inhibition effect on it (in words): versus control group / cisplatin, after 60 days from injection
Procedure: The in vivo sensitivity of the present conjugate drug against a gastric tumor cell line (YCC-3) was assayed using nu/nu mice (6-8 weeks old, 20-25 g). After being treated with 0.25% Trypsin-EDTA, the cultivated tumor cells were centrifuged in PBS solution for 5 minutes. This process was repeated three or more times, and then the tumor cells were made into a single floated tumor cell. The concentration of the tumor cells in PBS solution was calculated from the number of cells measured by a hemocytometer. The tumor cells were then kept in ice and were injected into mice within 30 minutes. The single floated tumor cells (4×10^7) in 100 μl of PBS solution were subcutaneously injected into the right side of each mouse using an 1 ml syringe.
[…] In the case of the control group, only the same amount of PBS solution was injected. Weights of the mice and tumor size were measured every two days. Size of the tumor was calculated with an equation of length×width×width/2.

leukemia L1210 cell line [2] = details: read-out: In vitro (ID50)
leukemia L1210 cell line [3] = tested on: leukemia L1210 cell line

**Q.** Which results are given for `N.N.[Cl][Pt][Cl]` [Cisplatin, reference compound]?
**A.** The tumor tissue size after injection of an antitumor agent ([1]; 18 days, dosage 4 mg/kg): 161.36 mm^3; The tumor tissue size after injection of an antitumor agent ([1]; 32 days, dosage 4 mg/kg): 330.62 mm^3; The tumor tissue size after injection of an antitumor agent ([1]; 48 days, dosage 4 mg/kg): 588.02 mm^3; The tumor tissue size after injection of an antitumor agent ([1]; 60 days, dosage 4 mg/kg): 815.79 mm^3; tumor tissue growth rate / inhibition effect on it (in words) [1]: not significantly different from that of the control group

**Q.** “poly{[methoxy poly(ethylene glycol)350][glycylglutamato-trans-(±)-1,2-diaminocyclohexaneplatinum(II)]phosphazene}, {NP(MPEG350)1.0[(GlyGlu)Pt(dach)]1.0}n [Example 3]” was tested. Which “The tumor tissue size after injection of an antitumor agent” value (from here on “The tumor tissue size after injection”) ([1]; 18 days, dosage 30 mg/kg) did it give?
**A.** 121.92 mm^3

**Q.** What about the “The tumor tissue size after injection” value ([1]; 18 days, dosage 60 mg/kg) of the same compound?
**A.** 32.69 mm^3

**Q.** What about the “The tumor tissue size after injection” value ([1]; 32 days, dosage 30 mg/kg) of the same compound?
**A.** 210.38 mm^3

**Q.** What about the “The tumor tissue size after injection” value ([1]; 32 days, dosage 60 mg/kg) of the same compound?
**A.** 72.08 mm^3

**Q.** What about the “The tumor tissue size after injection” value ([1]; 48 days, dosage 30 mg/kg) of the same compound?
**A.** 111.23 mm^3

**Q.** What about the “The tumor tissue size after injection” value ([1]; 48 days, dosage 60 mg/kg) of the same compound?
**A.** 65.36 mm^3

**Q.** What about the “The tumor tissue size after injection” value ([1]; 60 days, dosage 30 mg/kg) of the same compound?
**A.** 22.71 mm^3

**Q.** And the “The tumor tissue size after injection” value ([1]; 60 days, dosage 60 mg/kg)?
**A.** 91.10 mm^3

**Q.** And the “tumor tissue growth rate / inhibition effect on it (in words)” value [1]?
**A.** outstanding compared with that of cisplatin

**Q.** What about the pIC50 (leukemia L1210 cell line [2]) of the same compound?
**A.** 5.47

**Q.** What about the “in vivo T/C (%)” value (leukemia L1210 cell line [3]; dosage 30 mg/kg) of the same compound?
**A.** 194.1%

**Q.** What about the “in vivo T/C (%)” value (leukemia L1210 cell line [3]; dosage 60 mg/kg) of the same compound?
**A.** toxic

**Q.** What does the source list for “poly{[methoxy poly(ethylene glycol)350][glycylglutamato-trans-(±)-1,2-diaminocyclohexaneplatinum(II)]phosphazene}, {NP(MPEG350)1.2[(GlyGlu)Pt(dach)]0.8}n [Example 2]”?
**A.** pIC50 (leukemia L1210 cell line [2]): 5.16; in vivo T/C (%) (leukemia L1210 cell line [3]; dosage 30 mg/kg): 208.1%; in vivo T/C (%) (leukemia L1210 cell line [3]; dosage 60 mg/kg): > 305.6%

**Q.** “poly{[methoxy poly(ethylene glycol)350][glycylglutamato-trans-(±)-1,2-diaminocyclohexaneplatinum(II)]phosphazene}, {NP(MPEG350)1.4[(GlyGlu)Pt(dach)]0.6}n [Example 5]” was tested. Which pIC50 (leukemia L1210 cell line [2]) did it give?
**A.** 5.21

**Q.** And the “in vivo T/C (%)” value (leukemia L1210 cell line [3]; dosage 30 mg/kg)?
**A.** 244.3%

**Q.** What about the “in vivo T/C (%)” value (leukemia L1210 cell line [3]; dosage 60 mg/kg) of the same compound?
**A.** 231.1%

**Q.** With “poly{[methoxy poly(ethylene glycol)350][glycylglutamato-trans-(±)-1,2-diaminocyclohexaneplatinum(II)]phosphazene}, {NP(MPEG350)1.5[(GlyGlu)Pt(dach)]0.5}n [Example 1]” as the compound, how does the pIC50 (leukemia L1210 cell line [2]) read?
**A.** 5.09

**Q.** What about the “in vivo T/C (%)” value (leukemia L1210 cell line [3]; dosage 30 mg/kg) of the same compound?
**A.** 178/30%

**Q.** How did the pIC50 (leukemia L1210 cell line [2]) turn out when “poly{[methoxy poly(ethylene glycol)550][glycylglutamato-trans(±trans-(±)-1,2-diaminocyclohexaneplatinum(II)]phosphazene}, {NP(MPEG350)1.12[(GlyGlu)Pt(dach)]0.88}n [Example 7]” was run?
**A.** < 4.40

**Q.** What about the “in vivo T/C (%)” value (leukemia L1210 cell line [3]; dosage 30 mg/kg) of the same compound?
**A.** 228.2%

**Q.** And the “in vivo T/C (%)” value (leukemia L1210 cell line [3]; dosage 60 mg/kg)?
**A.** 209.4%

**Q.** How did the pIC50 (leukemia L1210 cell line [2]) turn out when “pol{[methoxy poly(ethylene glycol)350][glycylglutamato-trans-(±)-1,2-diaminocyclohexaneplatinum(II)]phosphazene}, {NP(MPEG350)1.2[(GlyGlu)Pt(dach)]0.8}n [Example 4]” was run?
**A.** 5.46

**Q.** What about the “in vivo T/C (%)” value (leukemia L1210 cell line [3]; dosage 30 mg/kg) of the same compound?
**A.** 186.8%

**Q.** What about the “in vivo T/C (%)” value (leukemia L1210 cell line [3]; dosage 60 mg/kg) of the same compound?
**A.** 216.8%
